Reference: patent publication US7723023B2, “Use of intrinsic reporters of cell signaling for high content drug profiling and toxicity screening” (Mount Sinai School of Medicine, priority 2001, dated 2010)

Assays:
[1] = test system: serotonin 5-HT2A receptor; assay: Early gene expression in mouse somatosensory cortex after drug injection, real-time PCR; format: in vivo; conditions: 1 h after i.p. exposure
PC12 cells [2] = assay: IRC (c-fos, egr1) response to cytotoxin in PC12 cells by real-time PCR; format: cell-based, rat; conditions: 200 μM H2O2, 1 hour exposure
Description: The values shown are mean±s.e.m.
The samples assayed were the same as those used to generate FIG. 7.
(§1) This level of oxidative stress induced by H2O2 leads to cell death via apoptosis, as determined by increased Caspase 3 activity by 8 hours and a reduced MTT assay response at 24 hours. […] This would allow the prediction of the toxicity of a candidate drug in this cellular target by comparison of the pattern obtained with this drug to those observed with known toxins. Thus the toxins would generate a library of reference landscapes that would serve as predictors of the effects of candidate drugs. The comparison between candidate compounds and reference landscapes could be achieved by representing each IRC at one concentration as a different axis in a conceptual multidimensional space (or matrix) and determining the Euclidean distance between the location of the candidate response profile and that of the reference landscape. Candidates that are closer to the position of known toxins would be predicted to have a higher likelihood of inducing similar toxicity at the corresponding concentrations.

[3] = test system: PC12 cells that stably express the dopamine D2 receptor; conditions: 200 μM H2O2, 1 h, PC12-D2R cells
Description: Early genes β-actin, PC3, c-fos, and egr1 were assayed by real-time PCR.

PC12 cells [4] = assay: Cell death of PC12 cells under oxidative stress (Caspase 3 activity, MTT assay); format: cell-based, rat
Description: as §1

[5] = test system: human serotonin 5-HT2A receptor; assay: Gene response landscape of IRCs in HEK293 cells expressing 5-HT2A receptor; format: cell-based; conditions: 10 genes, 8 concentrations, 1 hour, HEK293 cells expressing 5-HT2A receptors
Description: FIG. 6 is the gene response landscape for 5-HT and DOI in HEK293 cells expressing 5-HT2A receptors. The levels of gene induction in response to 8 concentrations of each agonist for 10 genes were determined in quadruplicate samples. The height of each peak represents the level of gene induction, expressed as fold-change. […] For example, the rightmost peak is highest with DOI exposure, but is lower with 5-HT exposure.
HEK293 cells were genetically engineered to stably express the human serotonin 5-HT2A receptor. Replicate aliquots of cells were treated with varying concentrations of 5-HT and DOI and the levels of a panel of IRCS after 1 hour exposure were determined by SYBR® green real-time PCR.

| SMILES | Induction of the 8 early genes in serotonin 5HT2A receptor gene-knockout mouse [1] | cfos mRNA level (PC12 cells [2]) | egr1 mRNA level (PC12 cells [2]) | Early genes induced (β-actin, PC3, c-fos, egr1 assayed) [3] | MTT assay response (PC12 cells [4]; 200 μM H2O2, at 24 hours) | Caspase 3 activity (PC12 cells [4]; 200 μM H2O2, by 8 hours) | Level of gene induction (fold-change) compared with 5-HT [5] |
| --- | --- | --- | --- | --- | --- | --- | --- |
| CCN(CC)C(=O)[C@@H]1C=C2c3cccc4[nH]cc(c34)C[C@H]2N(C)C1 [LSD] | no induction was observed |  |  |  |  |  |  |
| OO [H2O2] |  | marked increase | marked increase | Three genes were found to be induced at 1 h: PC3, c-fos, and egr1 | reduced | increased |  |
| COc1cc(CC(C)N)c(OC)cc1I (centres unmarked) [DOI] | no induction was observed |  |  |  |  |  | generally lower responses |
